Laboratory results taken from ChEMBL document CHEMBL1201862, “PubChem BioAssay data set” (2004).
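Exposure lasted 48 hours, with cells grown in 96-well plates and compounds tested at five concentrations. Here, GI50 denotes the concentration required for 50% inhibition of growth.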 Activity calls are given as the source filed them. No stated cut-off is given here; in the data, active = GI50 up to about 1.1 µM and inactive = higher.

Experiments:
Experiment in all cases: DTP human tumour cell line panel, 48 h
[1] = tested on: CAKI-1
[2] = tested on: CCRF-CEM
[3] = tested on: HCC 2998
[4] = tested on: HCT-116
[5] = tested on: HCT-15
[6] = tested on: HL-60
[7] = tested on: HOP-92
[8] = tested on: KM12
[9] = tested on: MCF7
[10] = tested on: MDA-N
[11] = tested on: NCI-H23
[12] = tested on: PC-3
[13] = tested on: SF-268
[14] = tested on: SK-OV-3
[15] = tested on: SN12C
[16] = tested on: SR
[17] = tested on: T47D
[18] = tested on: UACC-257
[19] = tested on: UACC-62

In the case of `Nc1nc(SCC(=O)c2ccccc2)nc2nc3c(c(-c4ccccc4)c12)CCCC3`, the GI50 [1] is reported as 15.3 µM (inactive), the GI50 [2] is reported as 74.8 µM (inactive) and the GI50 [3] is reported as 33 µM (inactive). The GI50 [4] was 30.5 µM (inactive), the GI50 [5] was over 100 µM and the GI50 [6] was > 100 µM (inactive). For the same compound, the GI50 [7] was > 10 µM (inactive), the GI50 [8] was 22.4 µM (inactive) and the GI50 [9] was 47.8 µM (inactive). For the same compound, the GI50 [10] was 31.9 µM (inactive), the GI50 [11] was 76.2 µM (inactive) and the GI50 [12] was > 10 µM (inactive). The GI50 [13] was 18.4 µM (inactive), the GI50 [14] was 4.71 µM (inactive) and the GI50 [15] was 38.5 µM (inactive). The GI50 [16] was > 100 µM (inactive), the GI50 [17] was 40.3 µM (inactive) and the GI50 [18] was 35 µM (inactive). For the same compound, the GI50 [19] was 23.3 µM (inactive).

For `N/N=C1\C(OC(=O)Nc2cccc(Cl)c2)=Nc2ccccc21`, the GI50 [1] was 4.47 µM (inactive), the GI50 [2] was 5.93 µM (inactive) and the GI50 [3] was 5.71 µM (inactive). The GI50 [4] was 4.67 µM (inactive), the GI50 [5] was 6.89 µM and the GI50 [6] was 13.6 µM (inactive). The GI50 [7] was 6.47 µM (inactive), the GI50 [8] was 4.58 µM (inactive) and the GI50 [9] was 8.51 µM (inactive). For the same compound, the GI50 [10] was 3.12 µM (inactive), the GI50 [11] was 5.07 µM (inactive) and the GI50 [12] was 4.98 µM (inactive). The GI50 [13] was 12.1 µM (inactive), the GI50 [14] was 7.43 µM (inactive) and the GI50 [15] was 4.95 µM (inactive). For the same compound, the GI50 [16] was 11.4 µM (inactive), the GI50 [17] was 2.45 µM (inactive) and the GI50 [18] was 13.7 µM (inactive). The GI50 [19] was 7.78 µM (inactive).

`Cc1nn(C(=O)c2ccc(Cl)cc2)c2c1C(c1ccccc1)SC(=N)N2` (stereo not drawn) was tested, and the GI50 [1] was > 10 µM (inactive), the GI50 [2] was > 10 µM (inactive) and the GI50 [3] was > 10 µM (inactive). The GI50 [4] was > 10 µM (inactive), the GI50 [5] was over 10 µM and the GI50 [6] was > 10 µM (inactive). For the same compound, the GI50 [7] was > 10 µM (inactive), the GI50 [8] was > 10 µM (inactive) and the GI50 [9] was > 10 µM (inactive). For the same compound, the GI50 [10] was > 10 µM (inactive), the GI50 [11] was > 10 µM (inactive) and the GI50 [12] was > 10 µM (inactive). The GI50 [13] was > 10 µM (inactive), the GI50 [14] was > 10 µM (inactive) and the GI50 [15] was > 10 µM (inactive). For the same compound, the GI50 [16] was > 10 µM (inactive), the GI50 [17] was > 10 µM (inactive) and the GI50 [18] was > 10 µM (inactive). The GI50 [19] was > 10 µM (inactive).

`Cc1ccc(/N=N/c2c(C)c(C#N)c(=S)n(C3OC(CO)C(O)C(O)C3O)c2C)cc1` (stereo not drawn) was tested, and the GI50 [1] was 37.2 µM (inactive), the GI50 [2] was 20 µM (inactive) and the GI50 [3] was 21.7 µM (inactive). The GI50 [4] was 25.8 µM (inactive), the GI50 [5] was 39 µM and the GI50 [6] was 59.6 µM (inactive). For the same compound, the GI50 [7] was 11.7 µM (inactive), the GI50 [8] was 41.1 µM (inactive) and the GI50 [9] was 35.6 µM (inactive). The GI50 [10] was 36.4 µM (inactive), the GI50 [11] was 32.1 µM (inactive) and the GI50 [12] was 28.2 µM (inactive). The GI50 [13] was 50.1 µM (inactive), the GI50 [14] was 34.7 µM (inactive) and the GI50 [15] was 28.2 µM (inactive). For the same compound, the GI50 [16] was 26 µM (inactive), the GI50 [17] was 23.3 µM (inactive) and the GI50 [18] was 63 µM (inactive). For the same compound, the GI50 [19] was 13.5 µM (inactive).

For `Cc1sc2nc3n(c(=O)c2c1C)N=C(c1ccc([N+](=O)[O-])cc1)CS3`, the GI50 [1] was > 100 µM (inactive), the GI50 [2] was > 100 µM (inactive) and the GI50 [3] was > 100 µM (inactive). The GI50 [4] was > 100 µM (inactive), the GI50 [5] was over 100 µM and the GI50 [6] was > 100 µM (inactive). For the same compound, the GI50 [7] was > 100 µM (inactive), the GI50 [8] was > 100 µM (inactive) and the GI50 [9] was > 100 µM (inactive). The GI50 [10] was > 100 µM (inactive), the GI50 [11] was > 100 µM (inactive) and the GI50 [12] was > 100 µM (inactive). For the same compound, the GI50 [13] was > 100 µM (inactive), the GI50 [14] was > 100 µM (inactive) and the GI50 [15] was > 100 µM (inactive). The GI50 [16] was > 100 µM (inactive), the GI50 [17] was > 100 µM (inactive) and the GI50 [18] was > 100 µM (inactive). The GI50 [19] was > 100 µM (inactive).

With `CC#CC#C/C=C1/O[C@]2(CCC(OC(C)=O)CO2)[C@@H]2O[C@H]12` (stereo partly drawn) the GI50 [1] was 25.5 µM (inactive), the GI50 [2] was 14.7 µM (inactive) and the GI50 [3] was 18.5 µM (inactive). For the same compound, the GI50 [4] was 17.8 µM (inactive), the GI50 [5] was 16.6 µM and the GI50 [6] was 18.4 µM (inactive). For the same compound, the GI50 [7] was 28.1 µM (inactive), the GI50 [8] was 19.9 µM (inactive) and the GI50 [9] was 26.5 µM (inactive). The GI50 [10] was 28.2 µM (inactive), the GI50 [11] was 19.4 µM (inactive) and the GI50 [12] was 22.1 µM (inactive). The GI50 [13] was 27.8 µM (inactive), the GI50 [14] was 51.9 µM (inactive) and the GI50 [15] was 20.6 µM (inactive). The GI50 [16] was 25.9 µM (inactive), the GI50 [17] was 15.3 µM (inactive) and the GI50 [18] was 21.6 µM (inactive). The GI50 [19] was 16.6 µM (inactive).

For `O=C1NC(=O)C(F)(n2cc(F)c(=O)[nH]c2=O)C(O)N1` (stereo not drawn), the GI50 [1] was > 10 µM (inactive), the GI50 [2] was > 10 µM (inactive) and the GI50 [3] was > 10 µM (inactive). The GI50 [4] was > 10 µM (inactive), the GI50 [5] was over 10 µM and the GI50 [6] was > 10 µM (inactive). The GI50 [7] was > 10 µM (inactive), the GI50 [8] was > 10 µM (inactive) and the GI50 [9] was > 10 µM (inactive). The GI50 [10] was > 10 µM (inactive), the GI50 [11] was > 10 µM (inactive) and the GI50 [12] was > 10 µM (inactive). The GI50 [13] was > 10 µM (inactive), the GI50 [14] was > 10 µM (inactive) and the GI50 [15] was > 10 µM (inactive). For the same compound, the GI50 [16] was > 10 µM (inactive), the GI50 [17] was > 10 µM (inactive) and the GI50 [18] was > 10 µM (inactive). For the same compound, the GI50 [19] was > 10 µM (inactive).
